Patent US20080076711A1, “Therapeutic agents for osteopenia” (Chugai Seiyaku Kabushiki Kaisha, priority 2001, published 2008)

Tests used:
[1] = tested on: wild-type strain 129 female mice; assay: BFR and MAR in cancellous bone (distal end of femur) after PTH treatment, wild-type mice; type: in vivo, mouse; settings: WT mice
Experimental: BFR denotes bone formation rate per unit trabecular area (μm^3/μm^2/day). MAR denotes the rate of increase in the distance between labeled calcified bands (μm/day). In the case of cancellous bone, decalcified sagittal sections were prepared from the metaphyseal region and analyzed for BFR and MAR in a 1.4 mm^2 square area located 0.2 mm apart from the growth plate of the distal end of femur. Labeling was accomplished by subcutaneous administration of xylenol orange (100 mg/kg of body weight) 4 days before and calcein 2 days before sampling. Recombinant human PTH(1-34) (Bachem, Torrance, Calif.) was dissolved in acidified physiological saline supplemented with 0.1% bovine serum albumin (Sigma Chemical Co.-Aldrich, St. Louis, Mo.). The OPN-KO mice were subcutaneously administered with 80 μg/kg of body weight human PTH(1-34) for 4 weeks on a five-days-a-week basis. Mice in the control group were administered with physiological saline alone. The effect of PTH on bone metabolism was also examined in the same manner as shown in Example 1, using wild-type strain 129 female mice (7 weeks of age). These mice were divided into groups of 6 mice each.

[2] = tested on: postmenopausal patients with osteoporosis; settings: 100 μg/day once-daily subcutaneous injections for 6 months; cited from earlier work
[3] = tested on: OPN knockout (OPN-KO) mice; assay: BFR and MAR in cortical bone (femoral mid-diaphysis) after PTH treatment, OPN-KO mice; type: in vivo, mouse
Experimental: In the case of cortical bone, decalcified horizontal sections (serial sections of 3 μm thickness) were prepared from the femoral mid-diaphysis and analyzed for BFR and MAR in the periosteal and endosteal regions. More specifically, a calcium chelator calcein (4 mg/kg of body weight) was subcutaneously administered 9 days and 2 days before sampling and the interval between two labeled bands was determined under a fluorescence microscope to calculate BFR and MAR.
(§1) BFR denotes bone formation rate per unit trabecular area (μm^3/μm^2/day).
(§2) MAR denotes the rate of increase in the distance between labeled calcified bands (μm/day).
(§3) To create an animal model in which the in vivo effects of OPN were inhibited, strain 129 female mice at 7 weeks of age were modified into knockout mice deficient in the OPN gene (OPN-KO mice), as described in Rittling et al. J. Bone Miner. Res., 13: 1101-1111, 1998. These mice were singly used for PTH treatment test. They were divided into groups of 6 mice each.
(§4) Recombinant human PTH(1-34) (Bachem, Torrance, Calif.) was dissolved in acidified physiological saline supplemented with 0.1% bovine serum albumin (Sigma Chemical Co.-Aldrich, St. Louis, Mo.). The OPN-KO mice were subcutaneously administered with 80 μg/kg of body weight human PTH(1-34) for 4 weeks on a five-days-a-week basis. Mice in the control group were administered with physiological saline alone.

[4] = tested on: wild-type strain 129 female mice; assay: Determination of cancellous bone mass (BV/TV) after PTH treatment, wild-type mice; type: in vivo, mouse; settings: WT mice, PTH(+) group, 80 μg/kg s.c., 4 weeks, five days a week
Experimental: Sagittal sections were prepared from the metaphyseal region of femur and tomographed using an X-ray microtomograph Musashi (Nittetsu-ELEX, Osaka, Japan). A Luzex-F automated Image analysis system (Nireco, Tokyo, Japan) was then used for analysis of the image data from a 1.47 mm^2 square area (0.7 mm×2.1 mm) located 0.2 mm apart from the growth plate of the distal end of femur to obtain BV/TV values. BV/TV (bone volume/total tissue volume) denotes the unit bone mass (%), i.e., the percentage of the total trabecular volume in the total tissue volume. Namely, an increase in BV/TV means an increase in calcified bone. Recombinant human PTH(1-34) (Bachem, Torrance, Calif.) was dissolved in acidified physiological saline supplemented with 0.1% bovine serum albumin (Sigma Chemical Co.-Aldrich, St. Louis, Mo.). The OPN-KO mice were subcutaneously administered with 80 μg/kg of body weight human PTH(1-34) for 4 weeks on a five-days-a-week basis. Mice in the control group were administered with physiological saline alone. The effect of PTH on bone metabolism was also examined in the same manner as shown in Example 1, using wild-type strain 129 female mice (7 weeks of age). These mice were divided into groups of 6 mice each.

[5] = tested on: OPN knockout (OPN-KO) mice; assay: BFR and MAR in cancellous bone (distal end of femur) after PTH treatment, OPN-KO mice; type: in vivo, mouse
Experimental: as §1, §2
In the case of cancellous bone, decalcified sagittal sections were prepared from the metaphyseal region and analyzed for BFR and MAR in a 1.4 mm^2 square area located 0.2 mm apart from the growth plate of the distal end of femur. Labeling was accomplished by subcutaneous administration of xylenol orange (100 mg/kg of body weight) 4 days before and calcein 2 days before sampling.
as §3, §4

[6] = tested on: OPN knockout (OPN-KO) mice; assay: Determination of TRAP-positive cells (osteoclasts) after PTH treatment, OPN-KO mice; type: in vivo, mouse; settings: PTH(+) group, 80 μg/kg s.c., 4 weeks
Experimental: After treatment with PTH, forefoot bone was excised from each animal. Each bone was rinsed with PBS, fixed for 7 days in 4% paraformaldehyde acid and decalcified for 3 days in 10% EDTA (pH 7.4), followed by dehydration and embedding in paraffin. Serial sections of 7 μm thickness were prepared from paraffin blocks and stained to measure TRAP (tartrate resistant acid phosphatase) activity, with Alcian blue for counter-staining. Among TRAP-positive cells attached to cancellous bone, those having at least three nuclei were counted using 15 serial sections of 7 μm thickness prepared from each bone. Each of the 15 sections was taken at five-section intervals from a total of 75 sections per bone. The number of multinucleated TRAP-positive cells in all 15 sections was summed to give the total number of osteoclasts per unit trabecular perimeter.
as §3
Recombinant human PTH(1-34) (Bachem, Torrance, Calif.) was dissolved in acidified physiological saline supplemented with 0.1% bovine serum albumin (Sigma Chemical Co.-Aldrich, St. Louis, Mo.). […]

[7] = PTH(+) group, 80 μg/kg s.c., 4 weeks
[8] = OPN-KO mice, PTH(+) group, 80 μg/kg s.c., 4 weeks, distal end of femur
[9] = OPN-KO mice, PTH(+) vs PTH(−) group, p<0.05
[10] = cancellous bone, OPN-KO vs WT mice, p<0.05

Substance: human PTH(1-34)
- BFR in cancellous bone [1, 7]: 1.85±0.08 μm^3/μm^2/day
- MAR in cancellous bone [1, 7]: 4.84±0.21 μm/day
- fold increase in cancellous BFR by PTH treatment ([1]; PTH(+) vs PTH(−) group, p<0.05): about 1.4 fold
- fold increase in cancellous MAR by PTH treatment ([1]; PTH(+) vs PTH(−) group, p<0.05): ~1.3 fold
- calcium balance [2]: restored normal calcium balance
- cancellous bone mass [2]: increased cancellous bone mass
- endosteal BFR, cortical bone [3, 7]: 0.62±0.09 μm^3/μm^2/day
- endosteal MAR, cortical bone [3, 7]: 1.33±0.28 μm/day
- periosteal BFR (bone formation rate), cortical bone [3, 7]: 2.38±0.18 μm^3/μm^2/day
- periosteal MAR (mineral apposition rate), cortical bone [3, 7]: 2.97±0.25 μm/day
- effect of PTH treatment on endosteal BFR and MAR ([3]; PTH(+) vs PTH(−) group): little effect
- fold increase in periosteal BFR by PTH treatment ([3]; PTH(+) vs PTH(−) group, p<0.05): ~1.8 fold
- fold increase in periosteal MAR by PTH treatment ([3]; PTH(+) vs PTH(−) group, p<0.05): ~1.2 fold
- cancellous bone mass BV/TV [4]: 21.17±2.68%
- BFR in cancellous bone [5, 8]: 2.68±0.34 μm^3/μm^2/day
- MAR in cancellous bone [5, 8]: 6.21±1.11 μm/day
- fold increase in cancellous BFR by PTH treatment [5, 9]: ~2.1 fold
- fold increase in cancellous MAR by PTH treatment [5, 9]: ~1.7 fold
- elevation in the magnitude of PTH-induced increase in BFR caused by lack of OPN [5, 10]: ~1.3 fold
- elevation in the magnitude of PTH-induced increase in MAR caused by lack of OPN [5, 10]: about 1.4 fold
- number of osteoclasts per unit trabecular perimeter of cancellous bone [6]: 7.6±1.0 cells/mm
